Assay results from article PMC5766581, “NF-κB inducing kinase is a therapeutic target for systemic lupus erythematosus” (Nature Communications, 2018).
pIC50: −log10 of the molar value.

Tests used:
[1] = test system: IL-12p40 production from human monocyte derived DC; experiment: CD40L induced IL-12p40 production from human DCs; assay type: cell-based
Description: Human monocytes were enriched from whole blood (Monocyte enrichment RosetteSep, Stem Cell) followed by isolation using Monocyte Isolation Kit II (Miltenyi). Isolated monocytes were cultured (RPMI-10% FBS, penicillin/streptomycin, glutamine) with rhGM-CSF (100 ng/mL) and rhIL-4 (6.5 ng/mL) (R&D Systems) for 5 days with GM-CSF replacement on day 3. On Day 5 immature monocyte derived DCs were monitored for differentiation by flow cytometry ([…], CD83^low CD86^low CD209^+/hi). […] After 24 h plates were centrifuged and supernatants were removed for IL-12p40 cytokine measurement by ELISA (BD Biosciences). Plots and IC50 measurements were generated using GraphPad Prism software.

human B cells = experiment: Human B cell rhCD40L proliferation assay; assay type: cell-based; conditions: Homo sapiens, B-cell; thymidine incorporation, day four; read-out: Human B cell anti-CD40 proliferation IC50
[2] = test system: TWEAK inducible genes in murine RPTEC; experiment: TWEAK-induced NIK-dependent gene expression in RPTECs (RNASeq); assay type: cell-based, mouse; conditions: 3 μM
Description: Total RNA was extracted using Qiagen RNeasy kit as per manufacturer’s protocol including the on-column DNase digestion. Quality control of samples was done to determine RNA quantity and quality prior to their processing by RNA-seq. The concentration of RNA samples was determined using NanoDrop 8000 (Thermo Scientific) and the integrity of RNA was determined by Fragment Analyzer (Advanced Analytical). 0.5 ug of total RNA was used as an input material for library preparation using TruSeq RNA Sample Preparation Kit v2 (Illumina). Size of the libraries was confirmed using 2200 TapeStation and High Sensitivity D1K screen tape (Agilent Technologies) and their concentration was determined by qPCR based method using Library quantification kit (KAPA). The libraries were multiplexed and then sequenced on Illumina HiSeq2500 (Illumina) to generate 30 M of single end 50 base pair reads. […] Raw RNA sequencing reads were processed using the HTSeqGenie Bioconductor package. Reads were aligned to the reference mouse genome sequence (National Center for Biotechnology Information build 37) using the Genomic Short-Read Nucleotide Alignment Program algorithm. Uniquely aligned read pairs that fell within exons were counted to estimate individual gene expression levels. For inclusion, genes were required to have >10 reads in at least four samples. […] Data were analyzed and plotted using Expression Plot[72].

C57BL/6 mice = experiment: Delayed-type hypersensitivity model; assay type: in vivo, mouse; conditions: 200 mg/kg BID P.O.
Description: Mice were immunized with OVA (100 μg, SC) (Sigma) in complete Freund’s adjuvant (Spectrum Chemicals and Laboratory Products) on day 0 and then challenged again with OVA (10 μg in PBS, SC right ear) on day 6. Ear thickness was measured by calipers, and unchallenged ear thickness was subtracted from OVA challenged ear thickness after 24 and 44 h. […] Investigators were not blinded to experimental samples.

CaMKI = biological target: T1, CaMKI (Homo sapiens, UniProt Q14012); experiment: SelectScreen kinase panel; assay type: biochemical
T1 construct: purchased Invitrogen / ThermoFisher SelectScreen
T1 sequence (Q14012 whole entry): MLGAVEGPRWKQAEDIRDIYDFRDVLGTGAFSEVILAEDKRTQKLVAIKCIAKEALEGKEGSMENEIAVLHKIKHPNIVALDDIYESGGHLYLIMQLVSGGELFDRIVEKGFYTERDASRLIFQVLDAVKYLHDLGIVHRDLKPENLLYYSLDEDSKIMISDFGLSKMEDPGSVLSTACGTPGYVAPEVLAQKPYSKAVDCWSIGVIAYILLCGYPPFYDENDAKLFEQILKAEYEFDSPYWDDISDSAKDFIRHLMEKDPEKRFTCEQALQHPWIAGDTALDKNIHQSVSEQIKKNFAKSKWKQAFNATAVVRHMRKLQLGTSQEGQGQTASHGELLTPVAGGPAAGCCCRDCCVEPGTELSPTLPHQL
In short: (§1)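 Using one of three vendor formats (Z′-LYTE, Adapta, LanthaScreen), Invitrogen measured compound effects across its SelectScreen kinase collection. Average inhibition percentages are listed.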

EphB1 = biological target: T2, EphB1 (Homo sapiens, UniProt P54762); experiment: SelectScreen kinase panel; assay type: biochemical
T2 construct: purchased Invitrogen / ThermoFisher SelectScreen
T2 sequence (P54762 18-984): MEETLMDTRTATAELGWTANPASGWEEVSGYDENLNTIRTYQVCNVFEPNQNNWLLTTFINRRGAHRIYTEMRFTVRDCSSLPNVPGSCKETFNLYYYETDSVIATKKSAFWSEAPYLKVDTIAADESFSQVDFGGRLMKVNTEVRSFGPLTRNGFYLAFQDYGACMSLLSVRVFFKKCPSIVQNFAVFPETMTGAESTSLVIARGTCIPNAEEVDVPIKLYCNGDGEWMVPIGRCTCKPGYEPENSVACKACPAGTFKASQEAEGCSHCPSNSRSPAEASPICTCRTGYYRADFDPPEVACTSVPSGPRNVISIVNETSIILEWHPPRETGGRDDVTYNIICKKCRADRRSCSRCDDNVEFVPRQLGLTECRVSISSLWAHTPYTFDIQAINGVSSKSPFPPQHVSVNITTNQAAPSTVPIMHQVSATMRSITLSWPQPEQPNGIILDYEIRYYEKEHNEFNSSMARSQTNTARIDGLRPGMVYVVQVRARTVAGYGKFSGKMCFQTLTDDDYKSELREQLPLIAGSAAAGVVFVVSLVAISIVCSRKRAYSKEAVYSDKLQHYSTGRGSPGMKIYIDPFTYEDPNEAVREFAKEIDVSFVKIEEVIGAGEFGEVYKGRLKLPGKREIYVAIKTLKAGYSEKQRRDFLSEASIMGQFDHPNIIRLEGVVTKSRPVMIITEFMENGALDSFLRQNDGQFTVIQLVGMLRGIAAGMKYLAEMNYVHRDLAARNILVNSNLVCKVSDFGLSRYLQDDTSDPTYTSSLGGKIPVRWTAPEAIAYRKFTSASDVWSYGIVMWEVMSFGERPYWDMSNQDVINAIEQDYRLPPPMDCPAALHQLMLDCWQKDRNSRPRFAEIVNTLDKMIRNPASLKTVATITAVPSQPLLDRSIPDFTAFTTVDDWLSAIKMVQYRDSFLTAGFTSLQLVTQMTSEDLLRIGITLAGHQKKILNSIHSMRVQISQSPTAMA
In short: as §1

P38_beta = biological target: T3, P38_beta (Homo sapiens, UniProt Q15759); experiment: SelectScreen kinase panel; assay type: biochemical
T3 construct: purchased Invitrogen / ThermoFisher SelectScreen
T3 sequence (Q15759 whole entry): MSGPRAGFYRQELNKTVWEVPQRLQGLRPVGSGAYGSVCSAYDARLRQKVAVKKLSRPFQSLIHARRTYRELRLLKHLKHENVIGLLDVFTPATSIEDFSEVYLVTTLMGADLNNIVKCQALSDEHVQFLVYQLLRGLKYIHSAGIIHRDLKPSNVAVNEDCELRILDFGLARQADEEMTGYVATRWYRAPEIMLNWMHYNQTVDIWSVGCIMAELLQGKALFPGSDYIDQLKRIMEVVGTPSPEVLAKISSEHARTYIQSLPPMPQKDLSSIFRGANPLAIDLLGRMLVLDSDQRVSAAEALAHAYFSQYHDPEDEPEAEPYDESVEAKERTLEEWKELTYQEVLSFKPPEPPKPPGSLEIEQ
In short: as §1

PAK1 = biological target: T4, PAK1 (Homo sapiens, UniProt Q13153); experiment: SelectScreen kinase panel; assay type: biochemical
T4 construct: purchased Invitrogen / ThermoFisher SelectScreen
T4 sequence (Q13153 whole entry): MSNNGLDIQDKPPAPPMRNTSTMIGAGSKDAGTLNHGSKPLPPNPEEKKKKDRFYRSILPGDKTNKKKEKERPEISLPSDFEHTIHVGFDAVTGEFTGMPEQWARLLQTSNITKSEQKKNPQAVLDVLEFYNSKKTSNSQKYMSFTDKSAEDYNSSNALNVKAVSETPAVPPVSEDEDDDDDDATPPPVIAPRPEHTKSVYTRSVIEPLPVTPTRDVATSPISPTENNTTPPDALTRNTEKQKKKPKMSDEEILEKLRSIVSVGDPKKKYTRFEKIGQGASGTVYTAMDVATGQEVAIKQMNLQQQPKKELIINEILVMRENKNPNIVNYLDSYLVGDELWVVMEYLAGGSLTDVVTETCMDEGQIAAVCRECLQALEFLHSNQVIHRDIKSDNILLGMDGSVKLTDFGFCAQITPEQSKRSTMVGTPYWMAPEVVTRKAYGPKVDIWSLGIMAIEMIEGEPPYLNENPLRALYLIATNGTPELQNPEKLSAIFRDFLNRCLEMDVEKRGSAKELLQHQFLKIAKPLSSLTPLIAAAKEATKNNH
In short: as §1

PrKX = biological target: T5, PrKX (Homo sapiens, UniProt P51817); experiment: SelectScreen kinase panel; assay type: biochemical
T5 construct: purchased Invitrogen / ThermoFisher SelectScreen
T5 sequence (P51817 whole entry): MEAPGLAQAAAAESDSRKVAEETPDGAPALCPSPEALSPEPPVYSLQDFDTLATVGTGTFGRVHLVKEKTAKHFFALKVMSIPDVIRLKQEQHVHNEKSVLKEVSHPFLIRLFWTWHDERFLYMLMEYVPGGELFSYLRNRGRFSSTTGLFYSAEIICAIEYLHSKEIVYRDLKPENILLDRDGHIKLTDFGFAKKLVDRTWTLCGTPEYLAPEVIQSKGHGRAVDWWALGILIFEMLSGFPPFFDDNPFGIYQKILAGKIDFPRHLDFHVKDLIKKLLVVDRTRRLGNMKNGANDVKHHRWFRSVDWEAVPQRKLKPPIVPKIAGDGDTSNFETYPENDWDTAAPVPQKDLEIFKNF
In short: as §1

## COc1cc(C(N)=O)nc(-c2cccc(C#C[C@]3(O)CCN(C)C3=O)c2)c1 [NIK SMI1]
[1]; dendritic cells
  CD40L-induced IL-12p40 production: nearly completely inhibited
[1]; human monocyte derived DC, rhCD40L, mean ± SD, read-out: CD40-induced IL-12 p40 IC50
  pIC50: 7.02
Human B cells
  pIC50: < 5.00
[2]; 6 and 24 h, RNASeq
  TWEAK inducible gene expression: majority of TWEAK inducible genes were inhibited
[2]; RPTEC in vitro
  genes induced by TWEAK and repressed by NIK SMI1: 179 genes
C57BL/6 mice
  effect in delayed type hypersensitivity study: partial effect
CaMKI
  inhibition at 1 µM: 18.3%
EphB1
  inhibition at 1 µM: 7%
P38_beta
  inhibition at 1 µM: 9%
PAK1
  inhibition at 1 µM: 9%
PrKX
  inhibition at 1 µM: 11%
